The term IC50 denotes the concentration that inhibits the measured activity by half.

This is an account of results in patent publication US9024017B2, “Octahydro-cyclopentapyrrolyl antagonists of CCR2” (Janssen Pharmaceutica NV, priority 2012, dated 2015).

For this experiment, the target named is T1, CCR2 (Homo sapiens, UniProt P41597).
T1 construct: host or cells: THP-1 (human monocytic cell line)
The experiment in a line: MCP-1 Receptor Binding Assay in THP-1 Cells. As to conditions: read-out: MCP1B_v3 IC50. How it is done: Compounds of the invention were subjected to various representative biological tests. […] MCP-1 Receptor Binding Assay in THP-1 Cells Human monocytic cell line THP-1 cells were obtained from American Type Culture Collection (Manassas, Va., USA). The THP-1 cells were grown in RPMI-1640 (RPMI: Roswell Park Memorial Institute Medium-cell culture growth media) supplemented with 10% fetal bovine serum in a humidified 5% CO2 atmosphere at 37° C. The cell density was maintained between […].
THP-1 (cells were incubated with 0.5 nM ^125I labeled MCP-1 (Perkin-Elmer Life Sciences, Inc. Boston, Mass.) in the presence of varying concentrations of either unlabeled MCP-1 (R & D Systems, Minneapolis, Minn.) or test compound for 2 hours at 30° C. in a 96 well plate. Cells were then harvested onto a filter plate, dried, and 20 μL of Microscint 20 was added to each well. Plates were counted in a TopCount NXT, Microplate Scintillation & Luminescence Counter (Perkin-Elmer Life Sciences, Inc. Boston, Mass.). Blank values (buffer only) were subtracted from all values and drug treated values were compared to vehicle treated values. 1 μM cold MCP-1 was used for nonspecific binding.

T1 sequence (P41597 whole entry): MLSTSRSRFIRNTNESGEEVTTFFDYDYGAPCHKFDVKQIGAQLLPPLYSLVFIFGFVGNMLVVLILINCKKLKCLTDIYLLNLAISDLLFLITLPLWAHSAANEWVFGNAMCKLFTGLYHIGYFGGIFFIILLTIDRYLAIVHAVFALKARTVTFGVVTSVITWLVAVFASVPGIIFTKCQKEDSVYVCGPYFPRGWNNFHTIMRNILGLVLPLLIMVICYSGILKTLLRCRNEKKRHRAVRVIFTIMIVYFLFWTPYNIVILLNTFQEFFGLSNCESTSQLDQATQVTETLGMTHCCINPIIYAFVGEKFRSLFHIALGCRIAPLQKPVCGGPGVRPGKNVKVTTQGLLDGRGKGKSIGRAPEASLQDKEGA

Turning to `COC1COCCC1N[C@@H]1C[C@H]2CN(C(=O)N3CCOCC3)C[C@@]2(C(=O)N2CCc3ncc(C(F)(F)F)cc3C2)C1` (relative stereo) [Example 22, ((3aR,5R,6aR)-5-(((3S*,4S*)-3-Methoxytetrahydro-2H-pyran-4-yl)amino)-2-(morpholine-4-carbonyl)octahydrocyclopenta[c]pyrrol-3a-yl)(3-(trifluoromethyl)-7,8-dihydro-1,6-naphthyridin-6(5H)-yl)methanone], the IC50 is 420 nM. Then `COC1COCCC1N[C@@H]1C[C@H]2CN(c3ccccc3)C[C@@]2(C(=O)N2CCc3ncc(C(F)(F)F)cc3C2)C1` (relative stereo) [Example 108, ((3aR,5R,6aR)-5-(((3S*,4S*)-3-Methoxytetrahydro-2H-pyran-4-yl)amino)-2-phenyloctahydrocyclopenta[c]pyrrol-3a-yl)(3-(trifluoromethyl)-7,8-dihydro-1,6-naphthyridin-6(5H)-yl)methanone], with 120 nM; and `COC1COCCC1N[C@@H]1C[C@H]2CN(C(=O)OCCC3CCOCC3)C[C@@]2(C(=O)N2CCc3ncc(C(F)(F)F)cc3C2)C1` (relative stereo) [Example 42, (3aR,5R,6aR)-2-(Tetrahydro-2H-pyran-4-yl)ethyl 5-(((3S*,4S*)-3-methoxytetrahydro-2H-pyran-4-yl)amino)-3a-(3-(trifluoromethyl)-5,6,7,8-tetrahydro-1,6-naphthyridine-6-carbonyl)hexahydrocyclopenta[c]pyrrole-2(1H)-carboxylate], with 30 nM. With `COC1COCCC1N[C@@H]1C[C@H]2CN(/C(N)=N\C#N)C[C@@]2(C(=O)N2CCc3ncc(C(F)(F)F)cc3C2)C1` (relative stereo) [Example 115, (3aR,5R,6aR,E)-N′-Cyano-5-(((3S*,4S*)-3-methoxytetrahydro-2H-pyran-4-yl)amino)-3a-(3-(trifluoromethyl)-5,6,7,8-tetrahydro-1,6-naphthyridine-6-carbonyl)hexahydrocyclopenta-[c]pyrrole-2(1H)-carboximidamide] the figure was 40 nM; with `COC1COCCC1N[C@@H]1C[C@H]2CN(C(=O)OCCN3CCCC3)C[C@@]2(C(=O)N2CCc3ccc(C(F)(F)F)cc3C2)C1` (relative stereo) [Example 46, (3aR,5R,6aR)-2-(Pyrrolidin-1-yl)ethyl 5-(((3S*,4S*)-3-methoxytetrahydro-2H-pyran-4-yl)amino)-3a-(7-(trifluoromethyl)-1,2,3,4-tetrahydroisoquinoline-2-carbonyl)hexahydrocyclopenta[c]pyrrole-2(1H)-carboxylate], 30 nM. As to `COC1COCCC1N[C@@H]1C[C@H]2CN(C(=O)OCC(C)C)C[C@@]2(C(=O)N2CCc3ncc(C(F)(F)F)cc3C2)C1` (relative stereo) [Example 64, (3aR,5R,6aR)-Isobutyl 5-(((3S*,4S*)-3-methoxytetrahydro-2H-pyran-4-yl)amino)-3a-(3-(trifluoromethyl)-5,6,7,8-tetrahydro-1,6-naphthyridine-6-carbonyl)hexahydro-cyclopenta[c]pyrrole-2(1H)-carboxylate], the IC50 was found to be 40 nM. `COC1COCCC1N[C@@H]1C[C@H]2CN(Cc3ccccc3)C[C@@]2(C(=O)N2CCc3ncc(C(F)(F)F)cc3C2)C1` (relative stereo) [Example 101, ((3aR,5R,6aR)-2-Benzyl-5-(((3S*,4S*)-3-methoxytetrahydro-2H-pyran-4-yl)amino)octahydrocyclopenta[c]pyrrol-3a-yl)(3-(trifluoromethyl)-7,8-dihydro-1,6-naphthyridin-6(5H)-yl)methanone]: the IC50 is 370 nM. Then `COC1COCCC1N[C@@H]1C[C@H]2CN(C(=O)NCC(C)(C)C)C[C@@]2(C(=O)N2CCc3ncc(C(F)(F)F)cc3C2)C1` (relative stereo) [Example 18, (3aR,5R,6aR)-5-(((3S*,4S*)-3-Methoxytetrahydro-2H-pyran-4-yl)amino)-N-neopentyl-3a-(3-(trifluoromethyl)-5,6,7,8-tetrahydro-1,6-naphthyridine-6-carbonyl)hexahydrocyclopenta[c]pyrrole-2(1H)-carboxamide], with 410 nM; and `C#CC(=O)N1C[C@@H]2C[C@@H](NC3CCOCC3OC)C[C@]2(C(=O)N2CCc3ncc(C(F)(F)F)cc3C2)C1` (relative stereo) [Example 73, 1-((3aR,5R,6aR)-5-(((3S*,4S*)-3-Methoxytetrahydro-2H-pyran-4-yl)amino)-3a-(3-(trifluoromethyl)-5,6,7,8-tetrahydro-1,6-naphthyridine-6-carbonyl)hexahydrocyclopenta-[c]pyrrol-2(1H)-yl)prop-2-yn-1-one], with 360 nM. With `COC1COCCC1N[C@@H]1C[C@H]2CN(C(=O)n3ccnc3)C[C@@]2(C(=O)N2CCc3ccc(C(F)(F)F)cc3C2)C1` (relative stereo) [Example 24, ((3aR,5R,6aR)-2-(1H-Imidazole-1-carbonyl)-5-(((3S*,4S*)-3-methoxytetrahydro-2H-pyran-4-yl)amino)octahydrocyclopenta[c]pyrrol-3a-yl)(7-(trifluoromethyl)-3,4-dihydroisoquinolin-2(1H)-yl)methanone] the figure was 50 nM. With `NC(=O)N1C[C@@H]2C[C@@H](NC3CCOCC3)C[C@]2(C(=O)N2CCc3ncc(C(F)(F)F)cc3C2)C1` [Example 8] the figure was 170 nM; with `COC1COCCC1N[C@@H]1C[C@H]2CN(C(=S)NCc3ccccc3)C[C@@]2(C(=O)N2CCc3ncc(C(F)(F)F)cc3C2)C1` (relative stereo) [Example 26, (3aR,5R,6aR)-N-Benzyl-5-(((3S*,4S*)-3-methoxytetrahydro-2H-pyran-4-yl)amino)-3a-(3-(trifluoromethyl)-5,6,7,8-tetrahydro-1,6-naphthyridine-6-carbonyl)hexahydrocyclopenta-[c]pyrrole-2(1H)-carbothioamide], 200 nM; with `COC1COCCC1N[C@@H]1C[C@H]2CN(/C(N)=N/O)C[C@@]2(C(=O)N2CCc3ncc(C(F)(F)F)cc3C2)C1` (relative stereo) [Example 116, (3aR,5R,6aR,E)-N′-Hydroxy-5-(((3S*,4S*)-3-methoxytetrahydro-2H-pyran-4-yl)amino)-3a-(3-(trifluoromethyl)-5,6,7,8-tetrahydro-1,6-naphthyridine-6-carbonyl)hexahydro-cyclopenta[c]pyrrole-2(1H)-carboximidamide], 1800 nM. `COC1COCCC1N[C@@H]1C[C@H]2CN(C(=O)OCCC(C)(C)O)C[C@@]2(C(=O)N2CCc3ncc(C(F)(F)F)cc3C2)C1` (relative stereo) [Example 62, (3aR,5R,6aR)-3-Hydroxy-3-methylbutyl 5-(((3S*,4S*)-3-methoxytetrahydro-2H-pyran-4-yl)amino)-3a-(3-(trifluoromethyl)-5,6,7,8-tetrahydro-1,6-naphthyridine-6-carbonyl)-hexahydrocyclopenta[c]pyrrole-2(1H)-carboxylate]: the IC50 was found to be 60 nM.

Consider `COCCNC(=O)N1C[C@@H]2C[C@@H](NC3CCOCC3OC)C[C@]2(C(=O)N2CCc3ncc(C(F)(F)F)cc3C2)C1` (relative stereo) [Example 19, (3aR,5R,6aR)-N-(2-Methoxyethyl)-5-(((3S*,4S*)-3-methoxytetrahydro-2H-pyran-4-yl)amino)-3a-(3-(trifluoromethyl)-5,6,7,8-tetrahydro-1,6-naphthyridine-6-carbonyl)hexahydrocyclopenta[c]pyrrole-2(1H)-carboxamide], for which the IC50 was 380 nM.

Consider `COC1COCCC1N[C@@H]1C[C@H]2CN(C(=O)/C=C/CN3CCCC3)C[C@@]2(C(=O)N2CCc3ncc(C(F)(F)F)cc3C2)C1` (relative stereo) [Example 88, (E)-1-((3aR,5R,6aR)-5-(((3S*,4S*)-3-methoxytetrahydro-2H-pyran-4-yl)amino)-3a-(3-(trifluoromethyl)-5,6,7,8-tetrahydro-1,6-naphthyridine-6-carbonyl)hexahydro-cyclopenta[c]pyrrol-2(1H)-yl)-4-(pyrrolidin-1-yl)but-2-en-1-one], for which the IC50 came to 40 nM. With `CO[C@@H]1COCC[C@H]1N[C@@H]1C[C@H]2CN(C(N)=O)C[C@@]2(C(=O)N2CCc3ncc(C(F)(F)F)cc3C2)C1` (relative stereo) [Example 5, (3aR,5R,6aR)-5-(((3S*,4R*)-(3-Methoxytetrahydro-2H-pyran-4-yl)amino)-3a-(3-(trifluoromethyl)-5,6,7,8-tetrahydro-1,6-naphthyridine-6-carbonyl)hexahydrocyclopenta-[c]pyrrole-2(1H)-carboxamide] the figure was 1350 nM; with `COC1COCCC1N[C@@H]1C[C@H]2CN(C(=O)CCN3CCOCC3)C[C@@]2(C(=O)N2CCc3ncc(C(F)(F)F)cc3C2)C1` (relative stereo) [Example 80, 1-((3aR,5R,6aR)-5-(((3S*,4S*)-3-Methoxytetrahydro-2H-pyran-4-yl)amino)-3a-(3-(trifluoromethyl)-5,6,7,8-tetrahydro-1,6-naphthyridine-6-carbonyl)hexahydrocyclopenta-[c]pyrrol-2(1H)-yl)-3-morpholinopropan-1-one], 230 nM. Then `CO[C@@H]1COCC[C@@H]1N[C@@H]1C[C@H]2CN(C(=O)/C=C/c3ccc(C(=O)O)cc3)C[C@@]2(C(=O)N2CCc3ccc(C(F)(F)F)cc3C2)C1` (relative stereo) [Example 89, 4-((E)-3-((3aR,5R,6aR)-5-(((3S*,4S*)-3-methoxytetrahydro-2H-pyran-4-yl)amino)-3a-(7-(trifluoromethyl)-1,2,3,4-tetrahydroisoquinoline-2-carbonyl)hexahydrocyclopenta-[c]pyrrol-2(1H)-yl)-3-oxoprop-1-en-1-yl)benzoic acid], with 10 nM.
